Drawing on patent US6451839B1, “Indole sPLA2 inhibitors” (Eli Lilly and Company, priority 1998, dated 2002), this text covers IC50 for nine compounds.

Usually IC50 stands for the concentration that inhibits the measured activity by half.

This assay has as its target T1, recombinant human secreted phospholipase A2 (Homo sapiens, UniProt P14555).
T1 sequence (P14555 21-144): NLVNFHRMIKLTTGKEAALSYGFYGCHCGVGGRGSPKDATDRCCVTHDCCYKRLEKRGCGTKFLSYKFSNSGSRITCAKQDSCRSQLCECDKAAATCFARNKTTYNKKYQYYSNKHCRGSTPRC
In words: chromogenic assay of recombinant human secreted phospholipase A2 inhibition. The assay is classed as biochemical. The settings on record: diheptanoyl thio-PC substrate, pH 7.5, 40° C. for 30 minutes, absorbance at 405 nanometers, triplicate; read-out: Inhibition of human secreted PLA2 IC50 ± mean deviation. From the text:
The following chromogenic assay procedure was used to identify and evaluate inhibitors of recombinant human secreted phospholipase A2. The assay described herein has been adapted for high volume screening using 96 well microtiter plates. A general description of this assay method is found in the article, “Analysis of Human Synovial Fluid Phospholipase A2 on Short Chain Phosphatidylcholine-Mixed Micelles: Development of a Spectrophotometric Assay Suitable for a Microtiterplate Reader”, by Laure J. Reynolds, Lori L. Hughes, and Edward A Dennis, Analytical Biochemistry, 204, pp. 190-197, 1992 (the disclosure of which is incorporated herein by reference):
RACEMIC DIHEPTANOYL THIO—PC
racemic 1,2-bis(heptanoylthio)-1,2-dideoxy-sn-glycero-3-phosphorylcholine
The reaction mixture thus obtained contains lmM diheptanoly thio-PC substrate, 0.29 mm Triton X-100™ detergent, and 0.12 mm DTMB in a buffered aqueous solution at pH 7.5.
1. Add 0.2 ml reaction mixture to all wells;
2. Add 10 ul test compound (or solvent blank) to appropriate wells, mix 20 seconds;
3. Add 50 nanograms of sPLA2 (10 microliters) to appropriate wells;
4. Incubate plate at 40° C. for 30 minutes;
5. Read absorbance of wells at 405 nanometers with an automatic plate reader.
All compounds were tested in triplicate. Typically, compounds were tested at a final concentration of 5 ug/ml. […] Lack of color development at 405 nanometers evidenced inhibition. Compounds initially found to be active were reassayed to confirm their activity and, if sufficiently active, IC50 values were determined. […] In all cases, % inhibition measured at 405 nanometers generated by enzyme reactions containing inhibitors relative to the uninhibited control reactions was determined. Each sample was titrated in triplicate and result values were averaged for plotting and calculation of IC50 values. IC50 were determined by plotting log concentration versus inhibition values in the range from 10-90% inhibition.
On to `CCc1c(NC(N)=O)c2c(OCC(=O)O)cccc2n1Cc1ccccc1` [Example 1, [[2-Ethyl-1-(phenylmethyl)-3-ureido-1H-indol-4-yl]oxy]acetic acid], for which the IC50 worked out at 0.049 µM. As to `CCc1c(NC(C)=O)c2c(OCC(=O)O)cccc2n1Cc1ccccc1` [Example 2, [[3-Acetamido-2-ethyl-1-(phenylmethyl)-1H-indol-4-yl]oxy]acetic acid], the IC50 stood at 65 µM. As to `CCc1c(NC(=O)C(F)(F)F)c2c(OCC(=O)O)cccc2n1Cc1ccccc1` [Example 3, [[3-trifluoroacetamido-2-ethyl-1-(phenylmethyl)-1H-indol-4-yl]oxy]acetic acid], the IC50 was determined as 51 µM. For the compound `CCc1c(NC(=O)CBr)c2c(OCC(=O)O)cccc2n1Cc1ccccc1` [Example 4, [[3-(Bromo)acetamido-2-ethyl-1-(phenylmethyl)-1H-indol-4-yl]oxy]acetic acid], the IC50 is 45 µM. In the case of `CCc1c(NC(N)=S)c2c(OCC(=O)O)cccc2n1Cc1ccccc1` [Example 5, [[2-Ethyl-1-(phenylmethyl)-3-thioureido-1H-indol-4-yl]oxy]acetic acid], the IC50 was determined as 6.8 µM.

As to `CCc1c(NC(=O)C(N)=O)c2c(OCC(=O)O)cccc2n1Cc1ccccc1` [Example 6, [[2-ethyl-3-oxamide-1-(phenylmethyl)-1H-indol-4-yl]oxy]acetic acid], the IC50 amounted to 13 µM.

As to `CCc1c(NC(N)=O)c2c(OCC(=O)O)cccc2n1Cc1ccccc1-c1ccccc1` [Example 7, [[2-ethyl-1-(2-phenyl-phenylmethyl)-3-ureido-1H-indol-4-yl]oxy]acetic acid], the IC50 came to 0.021 µM. Turning to `CCc1c(NC(N)=O)c2c(OCC(=O)O)cccc2n1Cc1ccccc1Br` [Example 8, [[2-ethyl-1-(2-bromo-phenylmethyl)-3-ureido-1H-indol-4-yl]oxy]acetic acid], the IC50 stood at 0.074 µM. The value for `CCc1c(NC(N)=O)c2c(OCC(=O)O)cccc2n1Cc1ccccc1-c1ccc(F)cc1` [Example 9, [[2-ethyl-1-(2-(4-fluorophenyl)-phenylmethyl)-3-ureido-1H-indol-4-yl]oxy]acetic acid] was 0.017 µM.
